Test results as given in patent publication US20110236921A1, “CELL SYSTEM” (GE HEALTHCARE UK LIMITED, priority 2010, published 2011).

Experiments:
WM115-Glu cells = experiment: live-cell validation, cell viability (cell number) by nuclear-channel imaging, glycolytic cell line; format: cell-based, human; details: WM115-Glu (glucose-rich medium), 384-well live-cell plate, tested at 10.0 μM; live cells visible over full concentration range
Protocol: (§1) Live cells are clearly visible in the full concentration range for WM115-Glu cells, but not for WM115-Gal cells (low cell density in 0.1 μM→10.0 μM antimycin A). FIG. 4b is a graphical representation of the same data.
(§2) Antimycin A acts on respiration […] of the electron transport chain. Glucose-deprived cells (WM115-Gal) are dependent on mitochondrial respiration for ATP, and are therefore sensitive to antimycin A. In contrast, the WM115-Glu cells grown in glucose-rich media are reliant on glycolysis for ATP generation and as predicted, these cells appear resistant to antimycin A.

WM115-Gal cells = experiment: live-cell validation, cell viability (cell number) by nuclear-channel imaging, respiring cell line; format: cell-based, human; details: WM115-Gal (glucose-free galactose medium), 384-well live-cell plate; as low as 0.1 μM; low cell density at 0.1 μM→10.0 μM
Protocol: as §1, §2

## antimycin A
WM115-Glu cells
  sensitivity of cells to drug (live cells visible / cell number): resistant
WM115-Gal cells
  sensitivity of cells to drug (live cells visible / cell number): susceptible
